# The source made the active and inactive calls. The rule behind the calls is not given here.
# Test system: CCRIS mutagenicity, Ames/micronucleus/aberration tests
# Test: CCRIS mutagenicity studies
# [1] = Test System: AMES SALMONELLA TYPHIMURIUM, Strain/Indicator: TA98, Metabolic Activation: NONE, Method: PREINCUBATION
# [2] = Test System: AMES SALMONELLA TYPHIMURIUM, Strain/Indicator: TA98, Metabolic Activation: RAT, LIVER, S-9, PCB, Method: PREINCUBATION
# [3] = Test System: AMES SALMONELLA TYPHIMURIUM, Strain/Indicator: TA100, Metabolic Activation: NONE, Method: PREINCUBATION
# [4] = Test System: AMES SALMONELLA TYPHIMURIUM, Strain/Indicator: TA100, Metabolic Activation: RAT, LIVER, S-9, PCB, Method: PREINCUBATION
# [5] = Test System: AMES SALMONELLA TYPHIMURIUM, Strain/Indicator: TA100, Metabolic Activation: NONE, Method: STANDARD PLATE
# [6] = Test System: AMES SALMONELLA TYPHIMURIUM, Strain/Indicator: TA1537, Metabolic Activation: NONE, Method: PREINCUBATION
smiles,measurement,setting,value
O=[N+]([O-])c1ccc(Nc2ncnc3c2ncn3-c2ccc([N+](=O)[O-])cc2)cc1,mutagenic call,"Test System: AMES SALMONELLA TYPHIMURIUM, Strain/Indicator: TA98(1,8-DNP), Metabolic Activation: NONE, Method: PREINCUBATION",inactive; negative
same,mutagenic call,"Test System: AMES SALMONELLA TYPHIMURIUM, Strain/Indicator: TA98(1,8-DNP), Metabolic Activation: RAT, LIVER, S-9, PCB, Method: PREINCUBATION",inactive; negative
same,mutagenic call,"Test System: AMES SALMONELLA TYPHIMURIUM, Strain/Indicator: TA98(NR), Metabolic Activation: NONE, Method: PREINCUBATION",inactive; negative
same,mutagenic call,"Test System: AMES SALMONELLA TYPHIMURIUM, Strain/Indicator: TA98(NR), Metabolic Activation: RAT, LIVER, S-9, PCB, Method: PREINCUBATION",inactive; negative
same,mutagenic call,[1],inactive; negative
same,mutagenic call,[2],inactive; negative
same,mutagenic call,"Test System: AMES SALMONELLA TYPHIMURIUM, Strain/Indicator: TA100(1,8-DNP), Metabolic Activation: NONE, Method: PREINCUBATION",inactive; negative
same,mutagenic call,"Test System: AMES SALMONELLA TYPHIMURIUM, Strain/Indicator: TA100(1,8-DNP), Metabolic Activation: RAT, LIVER, S-9, PCB, Method: PREINCUBATION",inactive; negative
same,mutagenic call,"Test System: AMES SALMONELLA TYPHIMURIUM, Strain/Indicator: TA100(NR), Metabolic Activation: NONE, Method: PREINCUBATION",inactive; negative
same,mutagenic call,"Test System: AMES SALMONELLA TYPHIMURIUM, Strain/Indicator: TA100(NR), Metabolic Activation: RAT, LIVER, S-9, PCB, Method: PREINCUBATION",inactive; negative
same,mutagenic call,[3],inactive; negative
same,mutagenic call,[4],inactive; negative
same,mutagenic call,"Test System: AMES SALMONELLA TYPHIMURIUM, Strain/Indicator: YG1020, Metabolic Activation: NONE, Method: PREINCUBATION",inactive; negative
same,mutagenic call,"Test System: AMES SALMONELLA TYPHIMURIUM, Strain/Indicator: YG1020, Metabolic Activation: RAT, LIVER, S-9, PCB, Method: PREINCUBATION",inactive; negative
same,mutagenic call,"Test System: AMES SALMONELLA TYPHIMURIUM, Strain/Indicator: YG1021, Metabolic Activation: RAT, LIVER, S-9, PCB, Method: PREINCUBATION",active; positive
same,mutagenic call,"Test System: AMES SALMONELLA TYPHIMURIUM, Strain/Indicator: YG1024, Metabolic Activation: RAT, LIVER, S-9, PCB, Method: PREINCUBATION",inactive; negative
same,mutagenic call,"Test System: AMES SALMONELLA TYPHIMURIUM, Strain/Indicator: YG1025, Metabolic Activation: NONE, Method: PREINCUBATION",inactive; negative
same,mutagenic call,"Test System: AMES SALMONELLA TYPHIMURIUM, Strain/Indicator: YG1025, Metabolic Activation: RAT, LIVER, S-9, PCB, Method: PREINCUBATION",inactive; negative
same,mutagenic call,"Test System: AMES SALMONELLA TYPHIMURIUM, Strain/Indicator: YG1026, Metabolic Activation: NONE, Method: PREINCUBATION",inactive; negative
same,mutagenic call,"Test System: AMES SALMONELLA TYPHIMURIUM, Strain/Indicator: YG1026, Metabolic Activation: RAT, LIVER, S-9, PCB, Method: PREINCUBATION",inactive; negative
same,mutagenic call,"Test System: AMES SALMONELLA TYPHIMURIUM, Strain/Indicator: YG1029, Metabolic Activation: NONE, Method: PREINCUBATION",inactive; negative
same,mutagenic call,"Test System: AMES SALMONELLA TYPHIMURIUM, Strain/Indicator: YG1029, Metabolic Activation: RAT, LIVER, S-9, PCB, Method: PREINCUBATION",inactive; negative
Nc1c(N=Nc2ccc([N+](=O)[O-])cc2)c(S(=O)(=O)O)cc2c1C(=O)/C(=N\Nc1ccc(-c3ccc(NN=C4C=CC(=O)C=C4)cc3)cc1)C(S(=O)(=O)O)=C2,mutagenic call,"Test System: AMES SALMONELLA TYPHIMURIUM, Strain/Indicator: TA98, Metabolic Activation: HAMSTER, LIVER, S-9, Method: PREINCUBATION (PRIVAL METHOD)",active; positive
same,mutagenic call,"Test System: AMES SALMONELLA TYPHIMURIUM, Strain/Indicator: TA98, Metabolic Activation: NONE, Method: STANDARD PLATE",inactive; negative
same,mutagenic call,"Test System: AMES SALMONELLA TYPHIMURIUM, Strain/Indicator: TA98, Metabolic Activation: RAT, LIVER, S-9, PHENOBARBITAL, Method: STANDARD PLATE",inactive; negative
same,mutagenic call,[5],inactive; negative
same,mutagenic call,"Test System: AMES SALMONELLA TYPHIMURIUM, Strain/Indicator: TA100, Metabolic Activation: RAT, LIVER, S-9, PHENOBARBITAL, Method: STANDARD PLATE",inactive; negative
CCN(CO)N=O,mutagenic call,"Test System: CHINESE HAMSTER V-79, Strain/Indicator: V-79/OUABAIN, Metabolic Activation: NONE",active; positive
O=[N+]([O-])c1cccc(S(=O)(=O)OC[C@@H]2CO2)c1,mutagenic call,[5],active; positive
CCCN=NC(C)(C)OO,mutagenic call,"Test System: AMES SALMONELLA TYPHIMURIUM, Strain/Indicator: TA1535, Metabolic Activation: NONE",active; positive
same,mutagenic call,"Test System: E. COLI, Strain/Indicator: WP2 (HCR-), Metabolic Activation: NONE",active; positive
O=C1c2ccccc2C(=O)c2c(O)c(O)cc(O)c21,mutagenic call,[1],inactive; negative
same,mutagenic call,"Test System: AMES SALMONELLA TYPHIMURIUM, Strain/Indicator: TA98, Metabolic Activation: RAT, LIVER, S-9, AROCLOR 1254, Method: STANDARD PLATE",inactive; negative
same,mutagenic call,[2],inactive; negative
same,mutagenic call,[3],inactive; negative
same,mutagenic call,"Test System: AMES SALMONELLA TYPHIMURIUM, Strain/Indicator: TA100, Metabolic Activation: RAT, LIVER, S-9, AROCLOR 1254, Method: STANDARD PLATE",inactive; negative
same,mutagenic call,[4],inactive; negative
same,mutagenic call,"Test System: AMES SALMONELLA TYPHIMURIUM, Strain/Indicator: TA1535, Metabolic Activation: NONE, Method: STANDARD PLATE",inactive; negative
same,mutagenic call,"Test System: AMES SALMONELLA TYPHIMURIUM, Strain/Indicator: TA1535, Metabolic Activation: RAT, LIVER, S-9, AROCLOR 1254, Method: STANDARD PLATE",inactive; negative
same,mutagenic call,[6],active; positive
same,mutagenic call,"Test System: AMES SALMONELLA TYPHIMURIUM, Strain/Indicator: TA1537, Metabolic Activation: NONE, Method: STANDARD PLATE",active; positive
same,mutagenic call,"Test System: AMES SALMONELLA TYPHIMURIUM, Strain/Indicator: TA1537, Metabolic Activation: RAT, LIVER, S-9, AROCLOR 1254, Method: STANDARD PLATE",active; positive
same,mutagenic call,"Test System: AMES SALMONELLA TYPHIMURIUM, Strain/Indicator: TA1537, Metabolic Activation: RAT, LIVER, S-9, Method: PREINCUBATION",active; positive
same,mutagenic call,"Test System: CHINESE HAMSTER V-79, Strain/Indicator: V-79/8-AZAGUANINE, Metabolic Activation: NONE, Method: STANDARD PLATE",active; positive
same,mutagenic call,"Test System: UDS RODENT HEPATOCYTES, Strain/Indicator: THY INCORP (NON-S-PHASE), Method: AUTORADIOGRAPHY",active; positive
Cc1cc2ccccc2c2cc3c(cc12)[C@H](O)[C@@H](O)C=C3,mutagenic call,"Test System: AMES SALMONELLA TYPHIMURIUM, Strain/Indicator: TA100, Metabolic Activation: RAT, LIVER, S-9, AROCLOR 1254, Method: PREINCUBATION",active; positive
CN(C)CCOC(C)(c1ccccc1)c1ccccn1 (stereo not drawn),mutagenic call,"Test System: AMES SALMONELLA TYPHIMURIUM, Strain/Indicator: TA98, Metabolic Activation: HAMSTER, LIVER, S-9, AROCLOR 1254 (10%), Method: PREINCUBATION",inactive; negative
same,mutagenic call,[1],inactive; negative
same,mutagenic call,"Test System: AMES SALMONELLA TYPHIMURIUM, Strain/Indicator: TA98, Metabolic Activation: RAT, LIVER, S-9, AROCLOR 1254 (10%), Method: PREINCUBATION",inactive; negative
same,mutagenic call,"Test System: AMES SALMONELLA TYPHIMURIUM, Strain/Indicator: TA100, Metabolic Activation: HAMSTER, LIVER, S-9, AROCLOR 1254 (10%), Method: PREINCUBATION",inactive; negative
same,mutagenic call,[3],inactive; negative
same,mutagenic call,"Test System: AMES SALMONELLA TYPHIMURIUM, Strain/Indicator: TA100, Metabolic Activation: RAT, LIVER, S-9, AROCLOR 1254 (10%), Method: PREINCUBATION",inactive; negative
same,mutagenic call,"Test System: AMES SALMONELLA TYPHIMURIUM, Strain/Indicator: TA1535, Metabolic Activation: HAMSTER, LIVER, S-9, AROCLOR 1254 (10%), Method: PREINCUBATION",inactive; negative
same,mutagenic call,"Test System: AMES SALMONELLA TYPHIMURIUM, Strain/Indicator: TA1535, Metabolic Activation: NONE, Method: PREINCUBATION",inactive; negative
same,mutagenic call,"Test System: AMES SALMONELLA TYPHIMURIUM, Strain/Indicator: TA1535, Metabolic Activation: RAT, LIVER, S-9, AROCLOR 1254 (10%), Method: PREINCUBATION",inactive; negative
same,mutagenic call,"Test System: AMES SALMONELLA TYPHIMURIUM, Strain/Indicator: TA1537, Metabolic Activation: HAMSTER, LIVER, S-9, AROCLOR 1254 (10%), Method: PREINCUBATION",inactive; negative
same,mutagenic call,[6],inactive; negative
same,mutagenic call,"Test System: AMES SALMONELLA TYPHIMURIUM, Strain/Indicator: TA1537, Metabolic Activation: RAT, LIVER, S-9, AROCLOR 1254 (10%), Method: PREINCUBATION",inactive; negative

# Source: PubChem BioAssay AID1259407 (Chemical Carcinogenesis Research Information System (CCRIS), 2018)
